This passage reports IC50 results from US20240109917A1 (ACTELION PHARMACEUTICALS LTD, priority 2020, published 2024).

Read-outs that look alike come from different tables or passages of the source.

This experiment addresses PDGFRβ (Rattus norvegicus (Rat), UniProt Q05030). In words: PDGFRβ Cellular Assay (PDGFRb P-Y751 HTRF in A10 cells stimulated with PDGF-BB). The experiment is classed as cell-based. In short, it runs like this: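 Rat A10 cells, plated overnight, were treated with compound for 3 hours, then stimulated with PDGF-BB (working stock 100 ng/mL in 10% FBS medium). After lysis, PDGFRβ P-Y751 was detected by HTRF.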

Sequence of PDGFRβ (Q05030 32-1097): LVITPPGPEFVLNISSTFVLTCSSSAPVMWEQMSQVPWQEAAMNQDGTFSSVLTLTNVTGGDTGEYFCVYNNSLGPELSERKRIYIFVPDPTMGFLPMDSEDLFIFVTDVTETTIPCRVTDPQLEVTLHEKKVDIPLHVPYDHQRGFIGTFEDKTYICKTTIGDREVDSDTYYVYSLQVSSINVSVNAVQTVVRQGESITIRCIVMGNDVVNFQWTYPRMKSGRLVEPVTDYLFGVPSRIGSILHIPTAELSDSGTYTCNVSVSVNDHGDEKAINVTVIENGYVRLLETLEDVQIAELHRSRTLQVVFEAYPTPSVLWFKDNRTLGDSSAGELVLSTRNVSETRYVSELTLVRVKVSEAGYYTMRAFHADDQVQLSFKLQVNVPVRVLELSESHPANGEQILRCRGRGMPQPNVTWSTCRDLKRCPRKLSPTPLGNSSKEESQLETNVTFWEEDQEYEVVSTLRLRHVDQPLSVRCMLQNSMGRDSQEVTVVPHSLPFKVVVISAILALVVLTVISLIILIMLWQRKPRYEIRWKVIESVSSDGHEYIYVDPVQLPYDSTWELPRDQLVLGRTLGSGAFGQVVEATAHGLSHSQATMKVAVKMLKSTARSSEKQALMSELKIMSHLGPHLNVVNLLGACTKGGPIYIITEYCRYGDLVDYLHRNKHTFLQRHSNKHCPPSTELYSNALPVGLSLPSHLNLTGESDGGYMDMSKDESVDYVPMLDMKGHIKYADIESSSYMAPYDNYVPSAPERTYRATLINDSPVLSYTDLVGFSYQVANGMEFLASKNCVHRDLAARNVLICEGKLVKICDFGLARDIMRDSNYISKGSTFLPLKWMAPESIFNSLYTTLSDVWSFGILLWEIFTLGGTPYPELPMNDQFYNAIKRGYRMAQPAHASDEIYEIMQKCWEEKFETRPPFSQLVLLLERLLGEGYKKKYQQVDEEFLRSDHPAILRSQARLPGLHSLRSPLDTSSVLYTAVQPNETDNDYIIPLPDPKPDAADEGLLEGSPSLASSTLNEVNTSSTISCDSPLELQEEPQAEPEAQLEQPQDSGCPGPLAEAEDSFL

`COCCn1cc(-c2cn3ncc(C(=O)Nc4cc(NC(=O)CN5CCC(C)(C)C5)cnc4C)c3s2)cn1` [Example 336, N-(5-(2-(3,3-dimethylpyrrolidin-1-yl)acetamido)-2-methylpyridin-3-yl)-2-(1-(2-methoxyethyl)-1H-pyrazol-4-yl)pyrazolo[5,1-b]thiazole-7-carboxamide]: under “read-out: PDGFR Cellular IC50”, the IC50 came to 3.1 nM.

As for `COCCn1cc(-c2cn3ncc(C(=O)Nc4cc(NC(=O)CN5CCCC5)cnc4C)c3s2)cn1` [Example 337, 2-(1-(2-methoxyethyl)-1H-pyrazol-4-yl)-N-(2-methyl-5-(2-(pyrrolidin-1-yl)acetamido)pyridin-3-yl)pyrazolo[5,1-b]thiazole-7-carboxamide], for the setting “read-out: PDGFR Cellular IC50”, the IC50 amounted to 24.9 nM.

For `COCCn1cc(-c2cn3ncc(C(=O)Nc4cc(NC(=O)CN5CCCCC5)cnc4C)c3s2)cn1` [Example 338, 2-(1-(2-methoxyethyl)-1H-pyrazol-4-yl)-N-(2-methyl-5-(2-(piperidin-1-yl)acetamido)pyridin-3-yl)pyrazolo[5,1-b]thiazole-7-carboxamide], the IC50 (read-out: PDGFR Cellular IC50) is 4.6 nM.

In the case of `COCCn1cc(-c2cn3ncc(C(=O)Nc4cc(NC(=O)CN5CCCCCC5)cnc4C)c3s2)cn1` [Example 339, N-(5-(2-(azepan-1-yl)acetamido)-2-methylpyridin-3-yl)-2-(1-(2-methoxyethyl)-1H-pyrazol-4-yl)pyrazolo[5,1-b]thiazole-7-carboxamide], the IC50 (read-out: PDGFR Cellular IC50) stood at 2.6 nM.

As for `COCCn1cc(-c2cn3ncc(C(=O)Nc4cc(NC(=O)CN5C6CCC5CC6)cnc4C)c3s2)cn1` [Example 340, N-(5-(2-(7-azabicyclo[2.2.1]heptan-7-yl)acetamido)-2-methylpyridin-3-yl)-2-(1-(2-methoxyethyl)-1H-pyrazol-4-yl)pyrazolo[5,1-b]thiazole-7-carboxamide], the half-inhibitory concentration (IC50) (read-out: PDGFR Cellular IC50) was 6.5 nM.

For `COCCn1cc(-c2cn3ncc(C(=O)Nc4cc(NC(=O)CN5CCC(C6CC6)C5)cnc4C)c3s2)cn1` (centres unmarked) [Example 341, N-(5-(2-(3-cyclopropylpyrrolidin-1-yl)acetamido)-2-methylpyridin-3-yl)-2-(1-(2-methoxyethyl)-1H-pyrazol-4-yl)pyrazolo[5,1-b]thiazole-7-carboxamide], the IC50 (read-out: PDGFR Cellular IC50) came to 5.1 nM.

For `COCCn1cc(-c2cn3ncc(C(=O)Nc4cc(NC(=O)C5CN(C(C)C)C5)cnc4C)c3s2)cn1` [Example 342, N-(5-(1-isopropylazetidine-3-carboxamido)-2-methylpyridin-3-yl)-2-(1-(2-methoxyethyl)-1H-pyrazol-4-yl)pyrazolo[5,1-b]thiazole-7-carboxamide], under “read-out: PDGFR Cellular IC50”, the IC50 came out at 339 nM.

In the case of `COCCn1cc(-c2cn3ncc(C(=O)Nc4cc(NC(=O)[C@@H]5CCCN5C(C)C)cnc4C)c3s2)cn1` [Example 343, (S)—N-(5-(1-isopropylpyrrolidine-2-carboxamido)-2-methylpyridin-3-yl)-2-(1-(2-methoxyethyl)-1H-pyrazol-4-yl)pyrazolo[5,1-b]thiazole-7-carboxamide], the IC50 (read-out: PDGFR Cellular IC50) stood at 47.9 nM.

For `COCCn1cc(-c2cn3ncc(C(=O)Nc4cc(NC(=O)[C@H]5CCCN5C(C)C)cnc4C)c3s2)cn1` [Example 344, (R)—N-(5-(1-isopropylpyrrolidine-2-carboxamido)-2-methylpyridin-3-yl)-2-(1-(2-methoxyethyl)-1H-pyrazol-4-yl)pyrazolo[5,1-b]thiazole-7-carboxamide], the IC50 (read-out: PDGFR Cellular IC50) worked out at 59.2 nM.

In the case of `COCCn1cc(-c2cn3ncc(C(=O)Nc4cc(NC(=O)C5CCN(C(C)C)C5)cnc4C)c3s2)cn1` (centres unmarked) [Example 345, N-(5-(1-isopropylpyrrolidine-3-carboxamido)-2-methylpyridin-3-yl)-2-(1-(2-methoxyethyl)-1H-pyrazol-4-yl)pyrazolo[5,1-b]thiazole-7-carboxamide], the IC50 (read-out: PDGFR Cellular IC50) stood at 222 nM.

For `Cc1ncc(NC(=O)[C@@H]2CCCN2C(C)C)cc1NC(=O)c1cnn2cc(-c3cnn4c3OCCC4)sc12` [Example 346, (S)-2-(6,7-dihydro-5H-pyrazolo[5,1-b][1,3]oxazin-3-yl)-N-(5-(1-isopropylpyrrolidine-2-carboxamido)-2-methylpyridin-3-yl)pyrazolo[5,1-b]thiazole-7-carboxamide], the IC50 (read-out: PDGFR Cellular IC50) came to 6.8 nM.

`Cc1ncc(NC(=O)[C@H]2CCCN2C(C)C)cc1NC(=O)c1cnn2cc(-c3cnn4c3OCCC4)sc12` [Example 347, (R)-2-(6,7-dihydro-5H-pyrazolo[5,1-b][1,3]oxazin-3-yl)-N-(5-(1-isopropylpyrrolidine-2-carboxamido)-2-methylpyridin-3-yl)pyrazolo[5,1-b]thiazole-7-carboxamide]: the IC50 (read-out: PDGFR Cellular IC50) was determined as 6 nM.

Turning to `Cc1ncc(NC(=O)C2CN(C(C)C)C2)cc1NC(=O)c1cnn2cc(-c3cnn4c3OCCC4)sc12` [Example 348, 2-(6,7-dihydro-5H-pyrazolo[5,1-b][1,3]oxazin-3-yl)-N-(5-(1-isopropylazetidine-3-carboxamido)-2-methylpyridin-3-yl)pyrazolo[5,1-b]thiazole-7-carboxamide], the IC50 (read-out: PDGFR Cellular IC50) came to 195 nM.

In the case of `Cc1ncc(NC(=O)[C@@H]2CCCN2C)cc1NC(=O)c1cnn2cc(-c3cnn4c3OCCC4)sc12` [Example 349, (S)-2-(6,7-dihydro-5H-pyrazolo[5,1-b][1,3]oxazin-3-yl)-N-(2-methyl-5-(1-methylpyrrolidine-2-carboxamido)pyridin-3-yl)pyrazolo[5,1-b]thiazole-7-carboxamide], the IC50 (read-out: PDGFR Cellular IC50) is 9.1 nM.

Regarding `Cc1ncc(NC(=O)C2CCN(C(C)C)C2)cc1NC(=O)c1cnn2cc(-c3cnn4c3OCCC4)sc12` (centres unmarked) [Example 350, 2-(6,7-dihydro-5H-pyrazolo[5,1-b][1,3]oxazin-3-yl)-N-(5-(1-isopropylpyrrolidine-3-carboxamido)-2-methylpyridin-3-yl)pyrazolo[5,1-b]thiazole-7-carboxamide], the concentration for half-maximal inhibition (IC50) (read-out: PDGFR Cellular IC50) was found to be 73.3 nM.

Turning to `Cc1ncc(NC(=O)C[C@H]2CCCN2C(C)C)cc1NC(=O)c1cnn2cc(-c3cnn4c3OCCC4)sc12` [Example 351, (R)-2-(6,7-dihydro-5H-pyrazolo[5,1-b][1,3]oxazin-3-yl)-N-(5-(2-(1-isopropylpyrrolidin-2-yl)acetamido)-2-methylpyridin-3-yl)pyrazolo[5,1-b]thiazole-7-carboxamide], inhibition (PDGFR Cellular IC50) was half-maximal at 17.7 nM (IC50).

`Cc1ncc(NC(=O)CN2CCC[C@@H]2C)cc1NC(=O)c1cnn2cc(-c3ccnc(N4CCOCC4)c3)sc12` [Example 352, (S)—N-(2-methyl-5-(2-(2-methylpyrrolidin-1-yl)acetamido)pyridin-3-yl)-2-(2-morpholinopyridin-4-yl)pyrazolo[5,1-b]thiazole-7-carboxamide]: the IC50 (read-out: PDGFR Cellular IC50) came out at 2.8 nM.

As for `Cc1ncc(NC(=O)CN2CCC23CCC3)cc1NC(=O)c1cnn2cc(-c3ccnc(N4CCOCC4)c3)sc12` [Example 353, N-(5-(2-(1-azaspiro[3.3]heptan-1-yl)acetamido)-2-methylpyridin-3-yl)-2-(2-morpholinopyridin-4-yl)pyrazolo[5,1-b]thiazole-7-carboxamide], the IC50 (read-out: PDGFR Cellular IC50) was 1.6 nM.

On to `Cc1ncc(NC(=O)C2CN(C(C)C)C2)cc1NC(=O)c1cnn2cc(-c3cn(C)nc3C)sc12` [Example 354, 2-(1,3-dimethyl-1H-pyrazol-4-yl)-N-(5-(1-isopropylazetidine-3-carboxamido)-2-methylpyridin-3-yl)pyrazolo[5,1-b]thiazole-7-carboxamide], for which the IC50 (read-out: PDGFR Cellular IC50) came out at 78.8 nM.

For `Cc1ncc(NC(=O)C2CCN(C(C)C)C2)cc1NC(=O)c1cnn2cc(-c3cn(C)nc3C)sc12` (centres unmarked) [Example 355, 2-(1,3-dimethyl-1H-pyrazol-4-yl)-N-(5-(1-isopropylpyrrolidine-3-carboxamido)-2-methylpyridin-3-yl)pyrazolo[5,1-b]thiazole-7-carboxamide], the IC50 (read-out: PDGFR Cellular IC50) worked out at 50.3 nM.

In turn, `Cc1ncc(NC(=O)C2CCN(C(C)C)C2)cc1NC(=O)c1cnn2cc(-c3cnn(C)c3C)sc12` (centres unmarked) [Example 356, 2-(1,5-dimethyl-1H-pyrazol-4-yl)-N-(5-(1-isopropylpyrrolidine-3-carboxamido)-2-methylpyridin-3-yl)pyrazolo[5,1-b]thiazole-7-carboxamide] had an IC50 (PDGFR Cellular IC50) of 74.6 nM.

Turning to `Cc1ncc(NC(=O)C2CN(C(C)C)C2)cc1NC(=O)c1cnn2cc(-c3cnn(C)c3C)sc12` [Example 357, 2-(1,5-dimethyl-1H-pyrazol-4-yl)-N-(5-(1-isopropylazetidine-3-carboxamido)-2-methylpyridin-3-yl)pyrazolo[5,1-b]thiazole-7-carboxamide], the half-maximal inhibitory concentration (IC50) (read-out: PDGFR Cellular IC50) came out at 56.9 nM.

For the compound `Cc1ncc(NS(=O)(=O)CCN2CC3CCC2CC3)cc1NC(=O)c1cnn2cc(-c3cnn(C)c3)sc12` [Example 358, N-(5-((2-(2-azabicyclo[2.2.2]octan-2-yl)ethyl)sulfonamido)-2-methylpyridin-3-yl)-2-(1-methyl-1H-pyrazol-4-yl)pyrazolo[5,1-b]thiazole-7-carboxamide], the concentration for half-maximal inhibition (IC50) (read-out: PDGFR Cellular IC50) amounted to 941 nM.

With `Cc1ncc(S(=O)(=O)NCCN2CCCC2(C)C)cc1NC(=O)c1cnn2cc(-c3cnn(C)c3)sc12` [Example 359, N-(5-(N-(2-(2,2-dimethylpyrrolidin-1-yl)ethyl)sulfamoyl)-2-methylpyridin-3-yl)-2-(1-methyl-1H-pyrazol-4-yl)pyrazolo[5,1-b]thiazole-7-carboxamide], the IC50 (read-out: PDGFR Cellular IC50) stood at 365 nM.

In the case of `COCCCc1cn2ncc(C(=O)Nc3cc(C(=O)NCCN4CCCC4(C)C)cnc3C)c2s1` [Example 360, N-(5-((2-(2,2-dimethylpyrrolidin-1-yl)ethyl)carbamoyl)-2-methylpyridin-3-yl)-2-(3-methoxypropyl)pyrazolo[5,1-b]thiazole-7-carboxamide], where the note is “PDGFR Cellular IC50”, the IC50 stood at 59.2 nM.

On to `COC/C=C/c1cn2ncc(C(=O)Nc3cc(C(=O)NCCN4CCCC4(C)C)cnc3C)c2s1` [Example 361, (E)-N-(5-((2-(2,2-dimethylpyrrolidin-1-yl)ethyl)carbamoyl)-2-methylpyridin-3-yl)-2-(3-methoxyprop-1-en-1-yl)pyrazolo[5,1-b]thiazole-7-carboxamide], for which, under “PDGFR Cellular IC50”, the IC50 came out at 14.9 nM.
